Measured values as given in patent US8809358B2, “Use of IκB-kinase inhibitors in pain therapy” (Sanofi-Aventis Deutschland GmbH, priority 2002, dated 2014).

Key:
[1] = system: Zymosan-induced paw inflammation; assay: Zymosan-induced paw inflammation in the mouse: paw withdrawal time during thermal stimulation of the hind paw; format: in vivo; details: for Statistical difference as compared with the vehicle: thermal hyperalgesia AUC
Description: • Zymosan-induced paw inflammation in the mouse; • Parameter: paw withdrawal time during thermal stimulation of the hind paw. Experimental implementation: In short-term anesthesia using isoflurane, 25 μl of a suspension containing 50 mg of zymosan/ml were injected into the right hind paw of the experimental animal. The development of a hyperalgesia was then determined quantitatively as follows: Determining the Paw Withdrawal Time During Thermal Stimulation (Hargreave's Test; See Above). The experimental animal was placed in a transparent plastic chamber having a glass floor. As soon as the experimental animal was no longer moving, following the reconnaissance phase (about 5 min), an infrared light source was positioned directly below the hind paw to be stimulated and switched on. The lamp emitted focused infrared light of increasing intensity such that the skin temperature of the hind paw increased almost linearly. As soon as the animal withdrew the paw, the lamp switched itself off. The temperature of the paw at the time it is withdrawn has just become unpleasant for the animal; this is referred to as the thermal pain threshold. Shortly before the zymosan injection, and for from 7 to 14 days after the injection, the thermal pain threshold was determined once daily on the right hind paw and left hind paw. Subsequently, the integral of the area which was formed from the curves for the paw withdrawal times of the inflamed paw and the noninflamed paw (AUC, area between the curves, see tables 5 and 6) was determined as a measure of the hyperalgesia. The larger this value is, the more pronounced is the hyperalgesia, and the smaller the value is in animals which are being given the substance, the greater is the success of the therapy. […] A very high dose of paracetamol was likewise administered twice daily to another group of animals which was taken through the experiment in parallel. […] The scheme for zymosan injection and dosing was identical to that in the previously described study. The only difference was that this additional study ran for 14 days.

[2] = system: Kaolin/carrageenan-induced knee joint inflammation; assay: Kaolin/carrageenan-induced knee joint inflammation in the rat: reaction of spinal neurons during pressure stimulation of the knee; format: in vivo
Text: (§1) • Zymosan-induced paw inflammation in the rat; • Parameter: paw withdrawal time or paw withdrawal threshold during thermal or mechanical stimulation of the hind paw. 2nd Model: • Kaolin/carrageenan-induced knee joint inflammation in the rat; • Parameter: reaction of spinal neurons during pressure stimulation of the knee. Model 1
Experimental implementation: In rats which were under sodium thiopental anesthesia, the spinal canal was opened and spinal medullary neurons which processed the “pain impulses” from the knee-joint were identified. Following identification, a long-term recording, in which the activity of the nerve cell was recorded before and during the development of an acute inflammation in the knee-joint, was carried out. For this, the responses to non-noxious and noxious stimulation at the knee-joint were measured in a control period before inducing the inflammation and for several hours after inducing the inflammation.
The acute inflammation was induced by the intraarticular injection of a suspension (about 150 μl) of kaolin and carrageenan. In controlled experiments, only the vehicle was applied to the spinal medullary surface in order to represent the development of the hyperexcitability under control conditions. As a rule, this development of hyperexcitability took place within 2 to 4 hours and was expressed in a marked increase in the responses to non-noxious and noxious stimulation of the knee-joint (Tab. 3). […] The responses of the cell to non-noxious and noxious stimulation were then subsequently monitored as in the control experiments.

[3] = system: Zymosan-induced paw inflammation; assay: Zymosan-induced paw inflammation in the rat: paw withdrawal threshold during mechanical stimulation (von Frey test); format: in vivo; details: for Change in the paw withdrawal threshold (%): 30 mg/kg i.p. 15 min before, 2.5 and 5.5 h after Zymosan
Description: as §1
Experimental implementation: in short-term anesthesia using isoflurane, 1 mg of Zymosan (as a suspension in 100 μl of PBS (phosphate-buffered salt solution)) was injected subcutaneously into the middle of the plantar side of one of the experimental animal's hind paws. After that, two different behavioral tests were used to quantitatively determine the development of a hyperalgesia.
b) Determining the Paw Withdrawal Threshold During Mechanical Stimulation (von Frey Test)
The experimental animal was placed in a transparent plastic chamber whose floor consisted of wire-gauze. Punctuate pressure of defined strength was produced using calibrated nylon fibers, what are termed von Frey hairs. The weakest pressure stimulation during which the animal withdrew its paw determines the mechanical pain threshold.
About half an hour before, and at various times after, the Zymosan injection, the thermal and mechanical pain thresholds were determined on the right hind paw and on the left hind paw (see Tables 1, 2). The decrease in the ipsilateral pain threshold, expressed in % of the contralateral pain threshold, was then calculated (see Tables 1, 2). The degree of hyperalgesia is directly proportional to the magnitude of this decrease.
In a control group, the Zymosan injection induced pronounced mechanical and thermal hyperalgesia (see control data in Tabs. 1 and 2).

[4] = system: Zymosan-induced paw inflammation; assay: Zymosan-induced paw inflammation in the mouse: spontaneous running performance in a running wheel; format: in vivo, C57/B6 mice; details: for Statistical difference as compared with the vehicle: running wheel AUC, seven days
Description: 4th Model: • Zymosan-induced paw inflammation in the mouse; • Parameter: spontaneous running performance in a running wheel. In the cage in which it is kept, the experimental animal has access to a running wheel, the revolutions of which are recorded electronically. During the night hours, the C57/B6 mice use the running wheel voluntarily and, after a one-week phase of acclimatization, cover on average 4 100 meters/night. After zymosan has been injected, the distance run each night is reduced. This reduction in running performance is a valid parameter for a restriction in function which is due to inflammation pain. Experimental implementation: After an acclimatization phase of one week, the distance run/24 hours was measured in order to determine the base line. 25 μl of a suspension containing 50 mg of zymosan/ml were then injected into the right hind paw of the experimental animal during short-term anesthesia using isoflurane. The distance run/24 hours was then determined during the following seven days. In the analysis, the area under the curve for the values for the distance run was determined (AUC, tab. 7): the lower the AUC, the lower was the running performance during the week following injection of the zymosan. […] The substance was administered for the first time on day 1 after injection of the zymosan.

Question: Which results are given for `CNc1nccc(-c2cc3cc(C(=O)N[C@@H](CN(c4ccccc4)c4ccccc4)c4n[nH]c(=O)o4)ccc3[nH]2)n1` [Compound 13, N—[(S)-2-diphenylamino-1-(5-oxo-4,5-dihydro[1,3,4]oxadiazol-2-yl)ethyl]-2-(2-methylaminopyrimidin-4-yl)-1H-indole-5-carboxamide]?
Answer: activity in the test model ([1]; mouse, 7-day study): very strong activity; reduction of thermal hyperalgesia compared with paracetamol ([1]; mouse, 7-day study): to a greater extent; AUC (thermal hyperalgesia), dose dependence ([1]; mouse, 7-day study, orally twice daily): decreased in a dose-dependent manner; thermal hyperalgesia, dose dependence ([1]; mouse, 14-day study): reduce thermal hyperalgesia in a dose-dependent manner; effect on thermal hyperalgesia at the high dosage, compound 13 versus Celecoxib ([1]; mouse, 14-day study, high dosage): equally strong effects; Statistical difference as compared with the vehicle ([1]; 14 days, 25 mg/kg): yes; Statistical difference as compared with the vehicle ([1]; seven days, 2.8 mg/kg orally twice daily): no; Statistical difference as compared with the vehicle ([1]; seven days, 25 mg/kg orally twice daily): yes; Statistical difference as compared with the vehicle ([1]; seven days, 75 mg/kg orally twice daily): yes; Neuronal responses before and during knee-joint inflammation (imp/15 s), mean value ([2]; Non-noxious stimulation at the knee-joint, about 30 μl of 10 μM solution on spinal medulla, Baseline): 0.92 imp/15 s; Neuronal responses before and during knee-joint inflammation (imp/15 s), mean value ([2]; Noxious stimulation at the knee-joint, about 30 μl of 10 μM solution on spinal medulla, 120-180 min after K/C injection): 8.5 imp/15 s; Neuronal responses before and during knee-joint inflammation (imp/15 s), mean value ([2]; Noxious stimulation at the knee-joint, about 30 μl of 10 μM solution on spinal medulla, Baseline): 0.8 imp/15 s; development of spinal hyperexcitability compared with the controls ([2]; rat, about 30 μl of 10 μM solution on spinal medulla): almost completely suppressed; effect on the responses to noxious knee-joint stimulation compared with indomethacin ([2]; rat, comparison with published data from an earlier study): more strongly expressed; onset of the effect on mechanical hyperalgesia after Zymosan injection ([3]; 30 mg/kg i.p.): 1 h; Change in the paw withdrawal threshold (%) ([3]; 2 h after Zymosan injection): −36.0%; Change in the paw withdrawal threshold (%) ([3]; 24 h after Zymosan injection): −9.7%; Change in the paw withdrawal threshold (%) ([3]; Baseline −0.5 h): 0.0%; mechanical hyperalgesia ([3]; 30 mg/kg i.p. three times): significantly reduced; persistence of the effect on mechanical hyperalgesia after the last administration ([3]; 30 mg/kg i.p. three times): ≥ 18 h; activity in the test model ([3]; mechanical hyperalgesia): very strong; distance run as compared with the vehicle group ([4]; mouse, 7 days, both the higher doses): dose-dependent increase; Statistical difference as compared with the vehicle ([4]; 2.8 mg/kg twice daily): no; Statistical difference as compared with the vehicle ([4]; 25 mg/kg twice daily): yes; Statistical difference as compared with the vehicle ([4]; 75 mg/kg twice daily): yes
